# Assay results as given in article PMC7725003, “Systematically Studying the Optimal Amino Acid Distribution Patterns of the Amphiphilic Structure by Using the Ultrashort Amphiphiles” (Frontiers in Microbiology, 2020).
# Where no end group is shown, it is not given here.
# Key:
# [1] = test system: P. aeruginosa ATCC 27853; format: cell-based, Pseudomonas aeruginosa; conditions: after 30 sequential passages in sub-MBC concentrations
# Description: Finally, P. aeruginosa ATCC 27853 was used as the model of the drug resistance study. […] The MBC values of the drugs against every two passage’s cells were tested. As a control, MBCs were also tested using cells that were serially passaged in fresh MHB without drugs. The assay was conducted independently in triplicate with three biological replicates.
# [2] = LPS binding assay (BODIPY-TR-cadaverine displacement); design: species or system Escherichia coli; conditions: 1 h 37°C
# Description: A BODIPY-TR-cadaverine (BC Sigma, United States) displacement assay was used to determine the abilities of the peptides to bind LPS ([Ma et al., 2015]); in this assay, a probe bound to cell-free LPS was self-quenched but fluoresced upon release into solution. The LPS from E. coli O111:B4 (50 μg/mL) was incubated with a BODIPY-TR-cadaverine (5 μg/mL) in Tris buffer (50 mM, pH 7.4) for 4 h. Subsequently, equal volumes of the LPS-probe solution and the peptides (1–64 μM) were incubated in a sterile 96-well black plate for 1 h at 37°C, and the fluorescence was measured on a spectrofluorophotometer (the Infinite 200 pro, Tecan, China) at excitation and emission wavelengths of 580 nm and 620 nm, respectively. Each test was performed independently in triplicate. The values were converted to %ΔF (AU) using the following equation:
# where Fobs is the observed fluorescence at a given peptide concentration, F0 is the initial fluorescence of BC with LPS in the absence of peptides, and F100 is the BC fluorescence with LPS cells upon the addition of 10 μg mL^–1 polymyxin B, a prototype LPS binder serving as the positive control.
# [3] = test system: E. coli K99
# Procedure, shortened: (§1)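 Peptides were serially diluted in 0.2% BSA and added to mid-logarithmic cells diluted in MHB to 0.5–1 × 10^6 CFU mL^–1. Assays followed an adapted NCCLS protocol.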
# [4] = test system: E. coli K88
# Procedure, shortened: as §1
# [5] = test system: all of the tested bacterial strains; test: Geometric mean of MICs, all tested bacterial strains; format: cell-based; conditions: for GM, All: geometric mean of MICs across all tested strains; for TI, All: therapeutic index TI = MHC/GM MIC
# Procedure, shortened: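 Per strain, MIC came from absorbance at 492 nm after 24 h at 37°C (≥95% inhibition), using mid-log inoculum of 0.5–1 × 10^6 CFU mL^–1 in MHB and peptide diluted in 0.2% BSA. MBC (>99.9% killed) came from overnight agar plating, and values are geometric means across strains.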
# [6] = test system: Gram-negative bacteria; conditions: geometric mean of MBCs, 9 Gram-negative strains (Table 2)
# [7] = test system: E. coli ATCC 25922; test: Outer membrane permeabilization (NPN uptake); format: cell-based, Escherichia coli; conditions: at 16 μM peptide
# Description: Mid-log phase E. coli ATCC 25922 cells (OD600 = 0.2) were incubated with NPN (10 μM) in 5 mM HEPES buffer (pH 7.4, containing 5 mM glucose) for 30 min. The background fluorescence was recorded for subtraction (excitation λ = 350 nm, emission λ = 420 nm) with an F-4500 fluorescence spectrophotometer (Hitachi, Japan). Subsequently, 100 μL of cell suspension was mixed with equal volumes of the peptide solution at concentrations that ranged from 1 to 64 μM in a sterile 96-well black plate. The fluorescence was recorded over time until no further fluorescence increase was detectable. Each test was performed independently in triplicate, and the results were converted to the percentage of NPN uptake using the equation:
# where Fobs is the observed fluorescence at a given peptide concentration, F0 is the initial fluorescence of NPN with microbial cells in the absence of peptide, and F100 is the fluorescence of NPN with microbial cells upon the addition of 10 μg/mL polymyxin B (Sigma) (for bacteria) as a positive control.
# [8] = test system: Gram-positive bacteria; conditions: geometric mean of MBCs, 7 Gram-positive strains (Table 2)
# [9] = test system: E. coli ATCC 25922; test: Cytoplasmic membrane depolarization (DiSC3-5); format: cell-based, Escherichia coli; conditions: DiSC3-5 release, at all concentrations
# Description: Mid-log phase E. coli ATCC 25922 cells (OD600 = 0.05) were incubated with 0.4 μM DiSC3-5 and 100 mM K ^+ in 5 mM HEPES buffer (pH 7.4, containing 20 mM glucose) until a steady decrease in fluorescence was achieved. The background fluorescence (excitation λ = 622 nm, emission λ = 670 nm) was recorded with an F-4500 fluorescence spectrophotometer (Hitachi, Japan). Subsequently, 2 mL of the cell suspension was added to a 1-cm quartz cuvette and mixed with various concentrations of peptide. The change in fluorescence in C-1, C-2, and C-3 was recorded from 0 to 1,000, 2,000, and 2,500 s, respectively.
# [10] = MHB, 24 h 37°C, 95% growth inhibition
# [11] = value in brackets, >99.9% of cells killed
Substance,resistance development [1],LPS binding efficiency ([2]; at 16 μM peptide) [%],"MIC [3, 10] [µM]","MBC [3, 11] [µM]","MIC [4, 10] [µM]","MBC [4, 11] [µM]","GM, All [5] [µM]","TI, All [5]",GM MBC [6] [µM],outer membrane permeabilization (NPN uptake) [7],GM MBC [8] [µM],LPS binding efficiency ([2]; at 32 μM peptide) [%],time to cytoplasmic membrane depolarization / highest fluorescence intensity [9] [s]
RLRLRLRLL-NH2 [L5],minimal,~80,4,8,2,4,4.18,61.24,6.35,approximately 50%,11.89,,
RWRWRWRWW-NH2 [W5],minimal,,,,,,2.38,107.56,,approximately 100%,,~80,≤ 300
